Patent US7271158B2, “Treatment of rumen acidosis with α-amylase inhibitors” (Pfizer Inc., priority 2000, dated 2007)

Columns and labels:
[1] = system: acute acidosis after carbohydrate challenge in cannulated cattle; assay: Acute acidosis model (carbohydrate challenge); assay type: in vivo, Holstein dried off cows and heifers
Text: Acute Acidosis Model: Assessment of Acarbose [table] Procedures: Ten Holstein dried off cows and heifers (initial weight 740±27 (SE) kg, range=606–870 kg) were group-housed during the pre-treatment period and individually housed during the experimental period. Animals were moved to a head-gate during sample collection, treatment and first challenge. Subsequently, they were sampled and dosed in their individual pens. Animals were offered approximately 5 kg alfalfa hay, 16 kg silage, 6 kg concentrate and 0.5 kg straw daily in a total mixed ration offered in two feedings (60:40 concentrate:roughage diet ). They were bedded on straw only during the pre-treatment period. Water was provided ad libitum. Animals were adapted to the lactating ration for at least 10 days before treatments were administered. From a group of 6 dry cows and 5 non-lactating heifers, ten were selected based on previous exposure to challenge and general health. Animals were paired by body weight and were randomly assigned to control and acarbose treatment groups within pair, ensuring similar distribution of heifers and cows. On days 0–6 of treatment, animals received 1.07 mg acarbose/kg dissolved in ˜200 mL water through the rumen cannula just before AM (07:30) and PM (16:00) feedings. Treatment 1 animals received an equivalent amount of water only. On days 7 and 8, each animal was administered a challenge through the cannula. When pH reached ˜4.5 and there was evidence of L-lactate production, acute acidosis was considered to be induced. When an animal experienced acute acidosis by these criteria, rumen contents were removed and the rumen inoculated with rumen contents from a donor animal. Animals were weighed on days—1 and 5 for calculation of acarbose dosing and challenge amounts. To measure rumen fluid pH animals were fitted with a harness to hold an automatic pH data recording system. The rumen pH was recorded every 10 min during the days of challenge until an animal experienced acute acidosis. Rumen fluid samples were taken (˜50 mL) from the rumen cannula through a filtered sampling tube. […] The pH was measured immediately. […] In some cases the sample was filtered through gauze before pH measurement and acid treatment. This mixture was centrifuged for 10 min at 12000 g. One aliquot of the supernatant was removed for immediate lactate analysis, one frozen for subsequent lactate analysis using Sigma kit 826. A third aliquot was transferred to an auto-sampler vial for subsequent VFA analysis. An initial determination of L-lactate was made during the study to establish acidotic status using Sigma kit 735. Subsequently D and L-lactate were re-measured for statistical analysis as described below. VFA's were measured on a Hewlett Packard 6890 series gas chromatograph fitted with an auto-sampler and flame ionisation detector. The acids were resolved on a SGE Ltd. 25 metre BP21 column (0.33 mm O.D., 0.22 mm I.D. 0.25 um film thickness). Nitrogen was used as the carrier gas with a flow rate of 1.9 ml/min. The oven temperature was 165° C., and injection ports and detectors were held at 250° C. Concentrations were calculated by using crotonic acid as an internal standard, and the system was calibrated using a standard solution containing acetic, propionic, butyric, iso-valeric and n-valeric acids.

[2] = system: chronic rumen acidosis induced in fistulated cattle; assay: In vivo testing in fistulated cattle (induced chronic rumen acidosis); parameters: species or system Hereford×Friesian steers; conditions: 4.0 g/trt through fistula
Text: In Vivo Testing in Fistulated Cattle Objective: To determine the effect of the agent for testing, in this case acarbose, on chronic rumen acidosis induced in fistulated cattle. A rumen pH profile representative of chronic acidosis was induced by stepwise increase in the level of concentrate feeding of a specified diet and a reduction in the roughage offered. This was followed by treatment of each animal with acarbose, administered via a permanent rumen fistula, to assess its ability to normalise rumen pH. Experimental Animals: Six fistulated Hereford×Friesian steers, weighing 170-230 kgs (supplied by […] Calves Ltd. […], Ceredigion) Treatment: Glucobay® 100. Acarbose 100 mgs per tablet. Management: The cattle were fed GH651 cattle high cereal beef pellets (variable amount) with barley straw (variable amount) divided over two equal feeds, given at around 08.00 hr and 14.30 hr each day. Precise feeding times were recorded. Water was available ad-lib. Cattle were individually housed in pens (9 square meters per pen) in a building environmentally controlled to 16° C. [table] While chronic acidosis was being induced, manual pH measurements were taken approximately 5 and 8 hours post-morning feed. Rumen fluid samples were taken for VFA and lactate analysis. […] First Sense Recorder). […] Rumen fluid samples (10 ml) were taken twice daily for measurement of VFA levels, molar ratios and lactate levels. These were collected (by manually removing a sample of rumen content with a small stainless […], filtering and transferring to a 10 ml polypropylene vial) just before acarbose was added to the rumen at both dosing times. The pH probes were removed for cleaning and recalibration immediately pre-morning feed. Results: The daily pH curves were used to calculate the period that rumen pH was below pH 5.5, and therefore indicative of chronic acidosis.

**Q.** What does the source list for `CC1OC(OC2C(CO)OC(OC3C(CO)OC(O)C(O)C3O)C(O)C2O)C(O)C(O)C1NC1C=C(CO)C(O)C(O)C1O` (centres unmarked) [Acarbose, acarbose]?
**A.** Group mean D-Lactate ([1]; 0 hours post second challenge): 0.67 mM; Group mean L-Lactate ([1]; 0 hours post second challenge): 0.35 mM; Group mean Total-Lactate ([1]; 0 hours post second challenge): 1.02 mM; acute acidosis following carbohydrate challenge ([1]; 1.07 mg/kg BW BID 7 days pre-challenge, via cannula): prevented acute acidosis; Group mean D-Lactate ([1]; 3 hours post second challenge): 3.63 mM; Group mean L-Lactate ([1]; 3 hours post second challenge): 1.28 mM; Group mean Total-Lactate ([1]; 3 hours post second challenge): 4.91 mM; Group mean D-Lactate ([1]; 5 hours post second challenge): 10.91 mM; Group mean L-Lactate ([1]; 5 hours post second challenge): 3.08 mM; Group mean Total-Lactate ([1]; 5 hours post second challenge): 13.99 mM; Group mean D-Lactate ([1]; 7 hours post second challenge): 18.00 mM; Group mean L-Lactate ([1]; 7 hours post second challenge): 4.93 mM; Group mean Total-Lactate ([1]; 7 hours post second challenge): 22.93 mM; rumen pH ([1]; after second carbohydrate challenge, all treated cattle, 1.07 mg/kg BW BID 7 days pre-challenge, via cannula): above 5.0; lactate level in rumen fluid ([1]; after second challenge, all acarbose-treated animals (four of five controls >50 mM)): remained at zero; L-lactate production in response to the load ([1]; twice a day treatment): blocked; pH responses to a high carbohydrate load ([1]; twice a day treatment): reduced; total VFA concentrations in rumen fluid ([2]; 13:00 samples, treatment vs control phase): little difference; VFA concentration in rumen fluid ([2]; 14:00 samples, during the treatment period): fell; percentage of propionate in rumen fluid ([2]; all sampling times, during the treatment period): lower
